Patent publication US8722703B2, “Fused amino pyridines for the treatment of brain tumors” (Curis, Inc., priority 2009, dated 2014)

System: H1975 intracranial tumor
Test: Efficacy study in H1975 intracranial metastasis model
Assay type: in vivo, nude mice
Conditions: Compound-15 120 mg/kg orally once every two days, lapatinib 75 mg/kg orally twice a day, 4 wk

## CN(C)c1cc2c(cc1Sc1nc3c(N)nccc3n1CCNCC(C)(C)C)OCO2 [Compound 15, 2-(6-(dimethylamino)benzo[d][1,3]dioxol-5-ylthio)-1-(2-(neopentylamino)ethyl)-1H-imidazo[4,5-c]pyridin-4-amine]
  animal survival: significantly prolonged animal survival
